According to ChEMBL document CHEMBL3507680, “University of Dundee, Gates Library screen for HepG2 cell viability”:

Assay: Human HepG2 cell viability assay in 384 well format
Assay type: toxicity, cell-based
Set-up: dose 125 nL, time 70.5 hour; cytotoxicity at 70.5 h: concentration not given beside the values
Conditions: HepG2 cells, read-out: Inhibition

Row | SMILES | cytotoxicity at 70.5 h
1 | O=C1CCc2cc(-c3csc(CCN4CCOC4=O)n3)c(F)cc2N1 | 24.3%
2 | CCc1noc(CC)c1CC(=O)N1CCCC(N2CCCCC2)C1 (configuration not stated) | -8.14%
3 | O=C(NC1(c2cccc(F)c2)CCOCC1)c1cc[nH]n1 | -4.33%
4 | CC1=C(C#N)C(=O)NC(=O)/C1=C\c1c(C)nn(-c2ccc(C)cc2)c1O | -2.65%
5 | O=C1NC(c2ccccc2)=N[C@@]12CC[C@@H]1CN(Cc3nccs3)C[C@@H]12 | -4.6%
6 | CC(C)N1CCC(CC(=O)N2CCCCC2CCn2cccn2)CC1 (configuration not stated) | -10.4%
7 | CN(C1CCN(c2ccccn2)CC1)S(=O)(=O)c1ccccc1F | -3.26%
8 | COCCS(=O)(=O)NC(C)c1ccc(-n2nc(C)cc2C)cc1 (configuration not stated) | 3.86%
9 | O=C([C@H]1COC[C@H]2CN(c3ncc(F)cn3)C[C@H]21)N1CCOCC1 | -7.81%
10 | Cc1ccc(OCC(O)CN2CCC(Cn3cccn3)CC2)cc1 (configuration not stated) | -1.48%
11 | COc1ccc(CN2CC[C@H](c3nc4cccc(C(N)=O)c4[nH]3)C2)cc1 | 3.39%
12 | O=C(CC(F)(F)F)N1C[C@H]2CN(CC3CC3)C(=O)[C@H]2C1 | -5.1%
13 | CC(NC(N)=O)C(=O)N1CCCN(Cc2nccn2C(C)C)CC1 (configuration not stated) | -11.9%
14 | CC(C)C1CN(c2ncccn2)CCC(=O)N1Cc1ccc(F)cc1 (configuration not stated) | 1.56%
15 | O=C(c1cc(-c2cccs2)on1)N1CCCCC1Cn1cccn1 (configuration not stated) | -8.41%
16 | COCc1ccc(C(=O)N2CCCN(Cc3ccc(F)cc3)CC2)s1 | 30.1%
17 | C=C(C)COc1cccc(C(=O)N2CCC(O)(c3ccccc3)CC2)c1 | 7.64%
18 | CCc1nc(CN2CCCC2C(=O)NC2CC2)cs1 (configuration not stated) | -7.43%
19 | Cc1ccc(NC(=O)c2n[nH]c(-n3cnnc3)n2)cc1C | 28.4%
20 | CNC(=O)[C@@]12CCO[C@@H]1CCN(Cc1cccc(C)c1)C2 | -12.5%
21 | CNC(=O)NC(=O)CN1CCC(c2cccc(F)c2)C1 (configuration not stated) | -4.22%
22 | CCc1cnc(CN(C(C)=O)C2CCN(CCc3cccs3)C2)o1 (configuration not stated) | 8.24%
23 | Cc1nn(C(C)C)c2cnn(CC(=O)N3CCSCC3)c12 | -1.45%

Row | SMILES | cytotoxicity at 70.5 h
24 | Cc1csc(CCCNC(=O)NC2CC(=O)N(C(C)(C)C)C2)n1 (configuration not stated) | -2.05%
25 | COc1cc(N2CCCC(c3nccn3Cc3ccncc3)C2)ncn1 (configuration not stated) | -6.57%
26 | CCN1CCN(S(=O)(=O)c2ccc(Cc3cc(C)n[nH]c3=O)cc2)CC1 | -10.8%
27 | O=C(c1cccnc1)N1CCOCC2(CCN(c3ncccn3)C2)C1 (configuration not stated) | -1.45%
28 | COc1cccc(CN2C[C@@H]3COC[C@]3(CNC(=O)C3CC3)C2)c1 | -9.15%
29 | Cc1ccc(C(N)=O)c(N2Cc3cnc(C(C)(C)C)nc3C2)n1 | -11.7%
30 | Cc1nc(CN(C)C2CCN(Cc3ccc(C(N)=O)cc3)C2)no1 (configuration not stated) | -11.2%
31 | CC(OCC1CC1)C(=O)Nc1ccn(Cc2ccccc2)n1 (configuration not stated) | -7.82%
32 | Cc1cc(C[S+]([O-])Cc2ccccc2C)no1 (configuration not stated) | -8.16%
33 | CCN(CC)C(=O)C1CCCN(c2ncnc3oc(C)nc23)C1 (configuration not stated) | -5.71%
34 | CC(C)c1nnc(CN2CCCC(Cn3cncn3)C2)o1 (configuration not stated) | -7.64%
35 | Clc1ccc2cccnc2c1CN1CCCC(Cn2cncn2)C1 (configuration not stated) | -14.3%
36 | CN1C(=O)c2ccc(C(=O)N(Cc3cnn(C)c3)C3CC3)cc2C1=O | -16.5%
37 | O=C(Cc1csc(N2CCNC2=O)n1)NCC1(c2ccccc2)CC1 | 24.5%
38 | O=C(Cc1cccs1)NCC1(O)CCSC1 (configuration not stated) | -5.51%
39 | CC(C)c1n[nH]c(C2CN(C(=O)c3cn4ccccc4n3)CCO2)n1 (configuration not stated) | 15.7%
40 | Clc1ccccc1CN1CCc2nc(C3CCCNC3)ncc2C1 (configuration not stated) | -7.56%
41 | CC(C)N1CCO[C@@H]2CN(S(=O)(=O)c3cccs3)CC[C@@H]2C1 | -7.93%
42 | COc1ccccc1C1(NCc2c(C)nc3c(C)cccn23)CCCC1 | 24.9%
43 | CN[C@@H]1CCC[C@@H](Oc2ccccc2Oc2ccc(C)cc2)[C@@H]1O | 22.2%
44 | CCc1noc(CC)c1CNC(=O)Nc1cccc(C(=O)N(C)C)c1 | -1.22%
45 | COc1ccc(C2CCCN2S(=O)(=O)N(C)C)cc1 (configuration not stated) | -6.59%
46 | c1ccc2c(c1)CC(N1CCCC(NCc3cccc4nonc34)C1)C2 (configuration not stated) | -9.28%

Row | SMILES | cytotoxicity at 70.5 h
47 | Fc1ccc(Br)c(NCc2nnsc2Cl)c1 | -2.39%
48 | OCCNc1cc(-c2ccccc2)ncn1 | -1.96%
49 | O=C1CN(C(=O)c2cc(Cl)ccc2F)c2ccncc2N1 | -8.1%
50 | CN(C)CCN(C)C1CCN(C(C(=O)O)c2ccc(F)c(Cl)c2)CC1 (configuration not stated) | 5.36%
51 | Cc1cc(CN2CC[C@H]3C[C@@H](C)O[C@@H]3C2)no1 | -7.88%
52 | CN1CCC2(Cc3ccccc3NC2=O)C1 (configuration not stated) | -3.49%
53 | CC(C)CN1CCC2(CCN(C(=O)c3ccc(F)cc3)CC2)C1=O | -5.58%
54 | Cc1ccn(-c2ccc(C(=O)N3CCCC(n4ccnc4)C3)cc2)n1 (configuration not stated) | -22.3%
55 | Cc1nc(CN(CCS(C)(=O)=O)C(C)C)cs1 | -8.28%
56 | CCc1cc(N(C)Cc2noc(C(C)C)n2)nc(N2CCOCC2)n1 | -13.5%
57 | O=C1N(Cc2ccc(F)c(F)c2)CCCC1(O)CNCC1CCCCC1 (configuration not stated) | 18.7%
58 | CC(C)NC(=O)N1CC[C@@H](N(C)C)[C@@H]1Cc1ccccc1 | -10.3%
59 | O=C(CCCOCc1ccccc1)N1CCCC(c2ncc[nH]2)C1 (configuration not stated) | -22.8%
60 | CCOc1c(Cl)cccc1NS(=O)(=O)c1cc(C)c(C(=O)O)s1 | -4.74%
61 | Cc1nncn1CCNC(=O)C(C)(C)c1cccc(C(F)(F)F)c1 | -9.3%
62 | Cn1nnc2c1CCN(Cc1ccccn1)C2COCc1ccccc1 (configuration not stated) | 14.7%
63 | CCc1nnc(CNc2ccc(CC(=O)N3CCSCC3)cc2)o1 | 13.8%
64 | CC(C)c1nsc(N2CCS(=O)(=O)CC2)n1 | -22.3%
65 | CS(=O)(=O)NC1CCN(C(=O)CCn2cccn2)CC1 | -9.56%
66 | Cc1cccc(CN2C[C@@H]3CN(Cc4ccoc4)CCO[C@@H]3C2)n1 | -1.63%
67 | O=C(CN1CCOC(c2ccccc2C(F)(F)F)C1)NC1CC1 (configuration not stated) | -7.54%
68 | O=C(C1=CCCC1)N1CCO[C@H]2[C@@H](Oc3ccccn3)CC[C@@H]21 | -0.715%
69 | CCCN1CCCC2(CCN(c3nccc(OC)n3)C2)C1=O (configuration not stated) | 2.5%

Row | SMILES | cytotoxicity at 70.5 h
70 | CC1(C)CC(=O)c2cnc3nc(N4CCCC4)[nH]c(=O)c3c2C1 | -10.4%
71 | Cn1cc(CN(CC2(O)CNCCOC2)C2CCCCC2)cn1 (configuration not stated) | -8.06%
72 | COc1cc(C)c(CNC(C)c2csc(C3CC3)n2)cc1OC (configuration not stated) | -4%
73 | O=C(Nc1ccccn1)C1(n2cnnn2)CCCCC1 | -21.1%
74 | CCOc1cc(C)nc(N2CCN(C(=O)Cn3cc(C)cn3)CC2)n1 | -0.0989%
75 | CCNC(=O)CCC(=O)Nc1nc(C)c(Cc2ccc(F)cc2)s1 | -1.26%
76 | Cn1cnnc1S(=O)(=O)C1CCN(S(=O)(=O)c2ccc(Cl)s2)CC1 | 11.9%
77 | CN(C)CC(=O)N1Cc2nc(C(=O)N3CCCN(C)CC3)oc2C1 | -7.8%
78 | CC(C)Cc1cc(C(=O)O)nc2[nH]c(=O)[nH]c(=O)c12 | -14.3%
79 | CC(C)NC(=O)c1nnn(-c2cccc(C(F)(F)F)c2)c1N | -4.84%
80 | O=C(NCC1CCN(Cc2ccsc2)CC1)NC1CC1 | 1.34%
81 | Cc1nc(N2CCOCC2)nc2c1CCN(C(=O)C1CC1)CC2 | -13.2%
82 | CC(C)n1cc(N2Cc3nc(N4CCOCC4)ncc3C2=O)cn1 | 15.4%
83 | COc1ccc(C(C)NCc2scnc2C)cc1Cn1cccn1 (configuration not stated) | 0.409%
84 | Cc1ccccc1CC(=O)N1CCCn2cncc2C1 | -9.13%
85 | Cc1ncc(C(=O)NC2CCN(CCOc3ccc(Br)cc3)CC2)s1 | -4.58%
86 | CC(C)N(C)S(=O)(=O)N(C)Cc1ccc2c(c1)OCO2 | 20.7%
87 | COc1ncccc1C(=O)N1CCCC(n2ccnc2C)C1 (configuration not stated) | -10.3%
88 | Cc1nc(C)n(CC2CCCN(CC(=O)Nc3cc(C)on3)C2)n1 (configuration not stated) | -2.38%
89 | O=C(c1ccco1)N1CC[C@@H]2O[C@@H](COCC3CCOCC3)CC[C@@H]21 | 11.4%
90 | Cn1cc(CN2CCC3(CC2)C(=O)Nc2ccccc23)cn1 | -6.51%
91 | Cc1nn(S(=O)(=O)c2ccc(Cl)cc2)c(C)c1C | 38.4%
92 | CCS(=O)(=O)N1CCC(Nc2ccc(C#N)cc2F)CC1 | -10.9%

Row | SMILES | cytotoxicity at 70.5 h
93 | Cc1cnn(-c2cccc(N3CCCCC3)n2)c1 | 15.7%
94 | CNc1ncc(C(=O)N2CCCC(CO)(CCCOC)C2)cn1 (configuration not stated) | 4.14%
95 | CCCC(=O)Nc1cccc(C(=O)N(C)CCCC2CCCO2)c1 (configuration not stated) | 2.48%
96 | O=S1(=O)c2cccnc2OC(COc2ccccc2)CN1CC1CC1 (configuration not stated) | -2.28%
97 | CC(NC(=O)C1CN(c2ncnc3c2nnn3C)C1)c1ccccc1 (configuration not stated) | -16.6%
98 | CN(C)Cc1ccnc(C2CCCN2Cc2cc[nH]n2)n1 (configuration not stated) | -1.65%
99 | COc1ccc(Cc2ncc3c(n2)CN(C(=O)CN(C)C)C3)cc1 | -8%
100 | Cc1cnn(CC2CCCCN2C(=O)c2ccc(N(C)C)nc2)c1 (configuration not stated) | 0.883%
101 | O=C(NCCn1cc(Cl)cn1)C1CCN(C(=O)C2CC2)CC1 | 2.7%
102 | CC(=O)NCCC(=O)NCC1(c2c(F)cccc2F)CCCC1 | -3.9%
103 | CNc1nc2c(s1)C(c1ccc(F)cc1Cl)CC(=O)N2 (configuration not stated) | 2.52%
104 | CCOC(=O)C1CCCN(Cc2c[nH]nc2-c2cc3ccccc3o2)C1 (configuration not stated) | 18.3%
105 | Cc1cc(C(=O)N(C)C)nc(C2(C)CCCN2c2ccccc2)n1 (configuration not stated) | -2.68%
106 | CS(=O)(=O)c1cncnc1C1CCCN(C(=O)Nc2ccccc2F)C1 (configuration not stated) | -11.6%
107 | CCc1noc(CN2CCCN(Cc3cccs3)CC2)n1 | -11.1%
108 | Cc1cc(C(=O)N2CCCC(c3ccc(C(=O)O)cc3)C2)c(C)o1 (configuration not stated) | -17.2%
109 | CN1C(=O)CC(c2cnn(C)c2)C12CCN(C(=O)c1ccno1)CC2 (configuration not stated) | -12%
110 | Cc1nn(C)c(N(C)C)c1CNCc1ccccc1Cn1cncn1 | -9.26%
111 | COCCN(CCC#N)S(=O)(=O)c1cc(F)cc(F)c1 | 3.86%
112 | CN(C)C(=O)CCNC(=O)NCc1ccc(Br)cc1Cl | 17.2%
